# Assay: Test 3-1: metabolic stability test in human hepatic microsome
# Assay type: in vitro ADME
# Settings: Test 3-1: microsome 0.1 mg/mL, test compound 0.1 μmol/L, 37° C., 30 minutes
# Procedure: Test 3-1: Metabolic Stability Test in Human Hepatic Microsome
# The metabolic stability of the present compound in human hepatic microsome was evaluated as mentioned below. Human hepatic microsome was obtained from Xenontech. Human hepatic microsome, NADPH, and each test compound were mixed in 25 mmol/L phosphate buffer solution (pH 7.4) to reach the following concentrations as shown below, and the mixture was incubated at 37° C. for 30 minutes. • Human hepatic microsome: 0.1 mg/mL • NAPDH: 3.2 mmol/L • Test compound: 0.1 μmol/L
# The residual ratio of test compound in each sample after 30 minutes was measured by LC-MS, and the metabolic stability in human hepatic microsome was calculated from the following formula. Metabolic stability in human hepatic microsome(mL/min/mg protein)=−LN(residual ratio)/30/0.1
row,SMILES,Metabolic stability in human hepatic microsome [mL/min/mg protein]
1,CCN(CCN1CCC(c2noc3cc(F)ccc23)CC1)C(=O)C1CNCCC1O (stereo not shown) [Example 67],<0.05
2,CCN(CCN1CCC(c2noc3cc(F)ccc23)CC1)C(=O)C1CCC(O)CC1 (stereo not shown) [Example 9],<0.05
3,CC(C)N(CCN1CCC(c2noc3cc(F)ccc23)CC1)C(=O)[C@H](C)O [Example 41],<0.05
4,CCN(CCN1CCC(c2c[nH]c3ccccc23)CC1)C(=O)[C@@H](C)O [Example 49],<0.05
5,CCN(CCN1CCC(c2c[nH]c3ccccc23)CC1)S(=O)(=O)CCO [Example 57],0.06
6,"CCN(CCN1CCC(c2noc3cc(F)ccc23)CC1)C(=O)C1CN(C)CC1O (stereo not shown) [Example 75, N-Ethyl-N-{2-[4-(6-fluoro-1,2-benzoisoxazol-3-yl)piperidin-1-yl]ethyl}-4-hydroxy-1-methylpyrrolidine-3-carboxamide]",<0.05
7,"CCN(CCN1CCC(n2ncc3cc(F)ccc32)CC1)C(=O)[C@@H](C)O [Example 3, (2R)-N-Ethyl-N-{2-[4-(5-fluoro-1H-indazol-1-yl)piperidin-1-yl]ethyl}-2-hydroxypropanamide]",<0.05
8,CCN(CCCN1CCC(c2noc3cc(F)ccc23)CC1)S(=O)(=O)CCO [Example 53],<0.05
9,CCN(CCN1CCC(c2noc3ccccc23)CC1)S(=O)(=O)CCO [Example 61],<0.05
10,CCN(CCCN1CCC(c2noc3cc(F)ccc23)CC1)S(=O)(=O)C(C)CO (stereo not shown) [Example 56],<0.05
11,CCN(CCN1CCC(n2ccc3cc(F)ccc32)CC1)C(=O)C(C)O (stereo not shown) [Example 50],<0.05
12,CCN(CCN1CCC(n2ncc3cc(F)ccc32)CC1)S(=O)(=O)CCO [Example 63],<0.05
13,CCN(CCCN1CCN(c2noc3cc(F)ccc23)CC1)S(=O)(=O)C(C)CO (stereo not shown) [Example 55],0.059
14,CCN(CCN1CCC(c2noc3cc(F)ccc23)CC1)C(=O)C1(O)CCOCC1 [Example 11],<0.05
15,CCN(CCN1CCC(c2noc3cc(F)ccc23)CC1)C(=O)C1CN(C(C)=O)CCC1O (stereo not shown) [Example 74],<0.05
16,CCN(CCN1CCC(c2c[nH]c3cc(F)ccc23)CC1)C(=O)CCO [Example 48],<0.05
17,CCN(CCN1CCC(c2noc3cc(F)ccc23)CC1)C(=O)C(C)(C)CO [Example 7],0.08
18,CCN(CCN1CCC(c2noc3ccc(C)cc23)CC1)S(=O)(=O)CCO [Example 59],0.079

row,SMILES,Metabolic stability in human hepatic microsome [mL/min/mg protein]
1,CCN(CCN1CCC(c2noc3cc(F)ccc23)CC1)C(=O)C1CC(O)C1 (stereo not shown) [Example 46],<0.05
2,CCN(CCCN1CCC(c2noc3cc(F)ccc23)CC1)C(=O)[C@H](C)O [Example 38],<0.05
3,CCN(CCN1CCC(c2noc3cc(F)ccc23)CC1)C(=O)[C@H]1NCC[C@H]1O [Example 68],<0.05
4,CCN(CCN1CCN(c2noc3cc(F)ccc23)CC1)C(=O)C(C)O (stereo not shown) [Example 27],<0.05
5,"CCN(CCN1CCC(c2noc3cc(F)ccc23)CC1)C(=O)C(O)COC (stereo not shown) [Example 18, N-Ethyl-N-{2-[4-(6-fluoro-1,2-benzoisoxazol-3-yl)piperidin-1-yl]ethyl}-2-hydroxy-3-methoxypropanamide]",<0.05
6,CCN(CCN1CCC(c2noc3cc(F)ccc23)CC1)C(=O)C(C)CO (stereo not shown) [Example 37],<0.05
7,CCN(CCN1CCC(c2noc3cc(F)ccc23)CC1)C(=O)C1(O)CCCN(C(C)=O)C1 (stereo not shown) [Example 72],0.057
8,CCN(CCCN1CCC(c2noc3ccccc23)CC1)S(=O)(=O)C(C)CO (stereo not shown) [Example 54],<0.05
9,CCN(CCN1CCC(c2noc3cc(F)ccc23)CC1)C(=O)C(F)(F)CO [Example 36],<0.05
10,CCN(CCN1CCC(c2noc3ccccc23)CC1)C(=O)C(C)O (stereo not shown) [Example 25],<0.05
11,CCN(CCN1CCC(c2noc3cc(F)ccc23)CC1)C(=O)C1(O)CCCNC1 (stereo not shown) [Example 69],<0.05
12,"CCN(CCN1CCC(c2c[nH]c3ccccc23)CC1)C(=O)[C@H](C)O [Example 23, (2S)-N-Ethyl-2-hydroxy-N-{2-[4-(1H-indol-3-yl)piperidin-1-yl]ethyl}propanamide]",<0.05
13,"CCN(CCN1CCC(n2ncc3cc(F)ccc32)CC1)C(=O)CCO [Example 2, N-Ethyl-N-{2-[4-(5-fluoro-1H-indazol-1-yl)piperidin-1-yl]ethyl}-3-hydroxypropanamide]",<0.05
14,"CCN(CCN1CCC(c2c[nH]c3ccccc23)CC1)C(=O)C(C)O (stereo not shown) [Example 22, N-Ethyl-2-hydroxy-N-{2-[4-(1H-indol-3-yl)piperidin-1-yl]ethyl}propanamide]",<0.05
15,CCN(CCN1CCC(c2noc3cc(F)ccc23)CC1)C(=O)C(C)(C)O [Example 6],0.053
16,CCCN(CCN1CCC(c2noc3cc(F)ccc23)CC1)C(=O)C(C)O (stereo not shown) [Example 39],<0.05
17,CCN(CCN1CCC(c2noc3cc(F)ccc23)CC1)C(=O)C1(O)CC1 [Example 24],<0.05
18,CCN(CCN1CCC(c2noc3cc(F)ccc23)CC1)C(=O)CC(C)O (stereo not shown) [Example 10],<0.05

# Second part, the compound after the results:
row,Metabolic stability in human hepatic microsome [mL/min/mg protein],SMILES
1,<0.05,CC(O)C(=O)N(CCN1CCC(c2noc3cc(F)ccc23)CC1)C(C)C (stereo not shown) [Example 31]
2,<0.05,CC(O)C(=O)N(CCN1CCC(c2noc3cc(F)ccc23)CC1)CC1CC1 (stereo not shown) [Example 30]
3,<0.05,CCN(CCN1CCC(c2c[nH]c3ccccc23)CC1)C(=O)CCO [Example 47]
4,<0.05,CCN(CCN1CCC(c2noc3cc(F)ccc23)CC1)C(=O)C1CNCC1O (stereo not shown) [Example 66]
5,<0.05,CCN(CCN1CCC(c2noc3cc(F)ccc23)CC1)C(=O)[C@H]1CC[C@@H](O)CC1 [Example 44]
6,<0.05,CCN(CCN1CCN(c2noc3ccccc23)CC1)C(=O)C(C)O (stereo not shown) [Example 26]
7,<0.05,"CCN(CCN1CCC(c2c[nH]c3cc(F)ccc23)CC1)C(=O)[C@H](C)O [Example 20, (2S)-N-Ethyl-N-{2-[4-(6-fluoro-1H-indol-3-yl)piperidin-1-yl]ethyl}-2-hydroxypropanamide]"
8,<0.05,CCN(CCN1CCC(c2noc3cc(F)ccc23)CC1)C(=O)[C@H]1CC[C@H](O)CC1 [Example 43]
9,<0.05,"CCN(CCN1CCC(c2n[nH]c3cc(F)ccc23)CC1)C(=O)C(C)O (stereo not shown) [Example 19, N-Ethyl-N-{2-[4-(6-fluoro-1H-indazol-3-yl)piperidin-1-yl]ethyl}-2-hydroxypropanamide]"
10,<0.05,CC(C)N(CCN1CCC(c2noc3cc(F)ccc23)CC1)C(=O)[C@@H](C)O [Example 42]
11,<0.05,CCN(CCN1CCC(c2noc3ccc(F)cc23)CC1)C(=O)[C@H](C)O [Example 45]
12,<0.05,"CCN(CCN1CCC(c2noc3cc(F)ccc23)CC1)C(=O)[C@@H](C)O [Example 1, (2R)-N-Ethyl-N-{2-[4-(6-fluoro-1,2-benzoisoxazol-3-yl)piperidin-1-yl]ethyl}-2-hydroxypropanamide]"
13,<0.05,CCN(CCN1CCC(c2noc3cc(F)ccc23)CC1)C(=O)C1(O)CCNC1 (stereo not shown) [Example 70]
14,0.054,CCN(CCN1CCC(c2noc3cc(F)c(C)cc23)CC1)C(=O)[C@H](C)O [Example 13]
15,0.097,CCN(CCN1CCC(n2ncc3cc(F)ccc32)CC1)S(=O)(=O)C(C)CO (stereo not shown) [Example 64]
16,<0.05,CC(C)N(CCN1CCC(c2noc3cc(F)ccc23)CC1)C(=O)CCO [Example 35]
17,<0.05,[2H]C(C)(O)C(=O)N(CC)CCN1CCC(c2noc3cc(F)ccc23)CC1 (stereo not shown) [Example 40]
18,0.089,CCN(CCN1CCC(c2noc3cc(F)ccc23)CC1)C(=O)CO [Example 12]
19,<0.05,"CCN(CCN1CCC(n2ncc3cc(F)ccc32)CC1)C(=O)[C@H](C)O [Example 21, (2S)-N-Ethyl-N-{2-[4-(5-fluoro-1H-indazol-1-yl)piperidin-1-yl]ethyl}-2-hydroxypropanamide]"

# Reference: US12503463B2, “Aliphatic acid amide derivative” (Sumitomo Pharma Co., Ltd., priority 2019, dated 2025)
